From patent US10668040B2, “Treatment of urea cycle disorders in neonates and infants” (Horizon Therapeutics, LLC, priority 2017, dated 2020)

Columns and labels:
[1] = tested on: pediatric patients with UCDs; assay: HPN-100-012 switch-over study: 24-hour blood ammonia on HPN-100 vs NaPBA; format: in vivo, human
Description: HPN-100-012 was an open-label, fixed sequence, switch-over study of the safety, PK and efficacy of HPN-100 compared to NaPBA in patients with UCDs, with a 12-month safety extension part. […] After review of all the safety data by the DSMB, 8 additional subjects were enrolled in the study after the switch-over phase was completed.

[2] = Pharmacokinetics of HPN-100 and NaPBA, study HPN-100-005; format: in vivo, human; conditions: HPN-100-005 (N = 11)
Description: (§1) The pharmacokinetics of the short term studies can be summarized as follows. Mean exposure levels of HPN-100 metabolites PBA, PAA, and PAGN after doses of HPN-100 and NaPBA with meals (TID) in pediatric (29 days to 17 years of age) UCD patients in HPN-100-005 and HPN-100-012 studies are summarized below. The mean exposure to PBA, the parent metabolite, and mean exposure to PAGN, the terminal metabolite, show no systematic variation across age groups, while PAA exposure tended to decrease with increasing age, a finding consistent with those from population PK modeling which indicate that the rate of clearance/metabolism of PAA varies directly with body size. While systemic metabolite exposure, assessed as peak plasma concentration (Cmax) or AUC, is generally similar for HPN-100 and NaPBA, the minimum concentration (Cmin-ss) was higher—and/or percent-fluctuation less—for plasma PAGN, a finding consistent with slower gastrointestinal absorption of PBA when administered orally as HPN-100.

[3] = Pharmacokinetics of HPN-100 and NaPBA, study HPN-100-012; format: in vivo, human; conditions: HPN-100-012 (N = 15)
Description: as §1

[4] = tested on: UCD patients; assay: HPN-100-009 (Example 2): growth and development, BMI and BSA Z-scores; format: in vivo, human; conditions: Age 2 Months to <2 Years
Procedure: Assessment of Growth and Development: Baseline and Change from Baseline in Body Mass Index (BMI) Z-Score and Body Surface Area (BSA) Z-Score Up to Month 9.
End point description. To assess any effect of study drug treatment on growth, Z-scores were calculated to express the deviation from a reference population for BMI and BSA. The BMI Z-scores are based on the World Health Organization's Child Growth Standards charts. The BSA Z-Scores are based on weight-for-length charts. Negative Z-scores indicate lower than typical for age and gender while positive scores indicate higher than typical for age and gender. […] End point timeframe: Baseline, Day 7, Month 2, Month 3, Month 4, Month 5, Month 6, Month 9.

[5] = Example 3: plasma PBA, PAA, PAGN PK on first full day of RAVICTI dosing; format: in vivo, human
Procedure: (§2) Pharmacokinetic (PK) Evaluable Population: all subjects from the safety population with individual concentration-time profiles that allow computation of meaningful PK parameter values. Measurements were taken at hour 0, between 4 and 6 hours, 8 hours, and between 12 and 24 hours after the first dose of the day on day 1 for stable subjects and on day 2 for subjects in HAC.
as §2, with “PK” for “Pharmacokinetic (PK)”

[6] = tested on: UCD patients; conditions: 4 patients aged 2 months to 2 years; cited from earlier work
[7] = original scale, non-inferiority upper margin 1.25
[8] = aged 0 to 2 months, 16 subjects
[9] = aged 2 months and up to 2 years, 10 subjects

O=C(CCCc1ccccc1)OCC(COC(=O)CCCc1ccccc1)OC(=O)CCCc1ccccc1 [RAVICTI, benzenebutanoic acid, 1′,1″-(1,2,3-propanetriyl) ester]
Mean blood ammonia ([1]; 8-h time point, HPN-100 Day 10): 23.20 µmol/L | Mean blood ammonia ([1]; 12-hour time point, HPN-100 Day 10, NaPBA Day 1): 28.24 µmol/L | upper 90% CI, blood ammonia 24-hour AUC HPN-100 vs NaPBA [1, 7]: 1.002 | upper 95% CI, blood ammonia 24-hour AUC HPN-100 vs NaPBA [1, 7]: 1.055 | median difference between treatments in ammonia AUC (HPN-100 vs NaPBA) ([1]; pediatric UCD patients 29 days to <6 years): -37.84 µmol·h/L | 24-hour AUC for blood ammonia, HPN-100 (Day 10) compared with NaPBA (Day 1) ([1]; pediatric UCD patients 29 days to <6 years, non-inferiority upper margin 1.25): non-inferior to NaPBA | Mean blood ammonia levels following an overnight fast ([1]; pre-dose and 24 hours post dose): normal | Plasma PAA % Fluctuation ([2]; mean (CV %)): 3483 (51.5) % | Plasma PAA AUC0-24 ([2]; mean (CV %)): 964 (63.6) μg · h/mL | Plasma PAA CLss/F ([2]; mean (CV %)): 15082 (101.4) mL/min | Plasma PAA Cmax-ss ([2]; mean (CV %)): 90.5 (69.1) μg/mL | Plasma PAA Cmin-ss ([2]; mean (CV %)): 2.99 (122.1) μg/mL | Plasma PAGN % Fluctuation ([2]; mean (CV %)): 1001 (84.5) % | Plasma PAGN AUC0-24 ([2]; mean (CV %)): 1378 (40.2) μg · h/mL | Plasma PAGN CLss/F ([2]; mean (CV %)): 14237 (36.8) mL/min | Plasma PAGN Cmax-ss ([2]; mean (CV %)): 105 (33.5) μg/mL | Plasma PAGN Cmin-ss ([2]; mean (CV %)): 13.1 (64.9) μg/mL | Plasma PBA % Fluctuation ([2]; mean (CV %)): 5690 (56.8) % | Plasma PBA AUC0-24 ([2]; mean (CV %)): 631 (44.9) μg · h/mL | Plasma PBA CLss/F ([2]; mean (CV %)): 20545 (47.2) mL/min | Plasma PBA Cmax-ss ([2]; mean (CV %)): 95.6 (42.0) μg/mL | Plasma PBA Cmin-ss ([2]; mean (CV %)): 1.50 (99.8) μg/mL | U-PAGN Ae ([2]; mean (CV %)): 12501037 (56.9) μg | U-PAGN Ae0-12 ([2]; mean (CV %)): 5611719 (74.7) μg | U-PAGN Ae12-24 ([2]; mean (CV %)): 6889318 (50.1) μg | U-PAGN Fe0-12 ([2]; mean (CV %)): 28.9 (42.1) % | U-PAGN Fe12-24 ([2]; mean (CV %)): 37.4 (32.3) % | U-PAGN Fe % dose ([2]; mean (CV %)): 66.4 (23.9) % | Plasma PAA Tmax-ss ([2]; median): 11.92 h | Plasma PAGN Tmax-ss ([2]; median): 12.00 h | Plasma PBA Tmax-ss ([2]; median): 12.00 h | Plasma PAA % Fluctuation ([3]; mean (CV %)): 2141 (145.0) % | Plasma PAA AUC0-24 ([3]; mean (CV %)): 1096 (214.0) μg · h/mL | Plasma PAA CLss/F ([3]; mean (CV %)): 25538 (116.8) mL/min | Plasma PAA Cmax-ss ([3]; mean (CV %)): 84.7 (148.3) μg/mL | Plasma PAA Cmin-ss ([3]; mean (CV %)): 26.1 (360.8) μg/mL | Plasma PAGN % Fluctuation ([3]; mean (CV %)): 907 (116.7) % | Plasma PAGN AUC0-24 ([3]; mean (CV %)): 1131 (71.2) μg · h/mL | Plasma PAGN CLss/F ([3]; mean (CV %)): 10830 (85.6) mL/min | Plasma PAGN Cmax-ss ([3]; mean (CV %)): 85.5 (53.7) μg/mL | Plasma PAGN Cmin-ss ([3]; mean (CV %)): 19.9 (173.4) μg/mL | Plasma PBA % Fluctuation ([3]; mean (CV %)): 1781 (84.6) % | Plasma PBA AUC0-24 ([3]; mean (CV %)): 255 (54.5) μg · h/mL | Plasma PBA CLss/F ([3]; mean (CV %)): 22610 (48.6) mL/min | Plasma PBA Cmax-ss ([3]; mean (CV %)): 36.8 (59.0) μg/mL | Plasma PBA Cmin-ss ([3]; mean (CV %)): 0.750 (192.7) μg/mL | Plasma PAA Tmax-ss ([3]; median): 8.00 h | Plasma PAGN Tmax-ss ([3]; median): 7.92 h | Plasma PBA Tmax-ss ([3]; median): 8.00 h | BMI Z-Score baseline [4]: 0.795 | BMI Z-score, Change from Baseline at Day 7 [4]: -0.211 | BMI Z-score, Change from Baseline at Month 2 [4]: 0.0021 | BMI Z-score, Change from Baseline at Month 3 [4]: 0.213 | BMI Z-score, Change from Baseline at Month 4 [4]: 0.47 | BMI Z-score, Change from Baseline at Month 5 [4]: 0.164 | BMI Z-score, Change from Baseline at Month 6 [4]: 0.469 | BSA Z-Score baseline [4]: 0.686 | BSA Z-score, Change from Baseline at Day 7 [4]: -0.185 | BSA Z-score, Change from Baseline at Month 2 [4]: -0.0437 | BSA Z-score, Change from Baseline at Month 3 [4]: 0.119 | BSA Z-score, Change from Baseline at Month 4 [4]: 0.381 | BSA Z-score, Change from Baseline at Month 5 [4]: 0.198 | BSA Z-score, Change from Baseline at Month 6 [4]: 0.398 | Plasma PBA mean Cmin ([5]; aged 0 to 2 months, 7 subjects): 4.8 (±4.2) μg/mL | mean plasma PAA Cmin ([5]; aged 0 to 2 months, 10 subjects): 98.98 (±122.07) μg/mL | mean plasma PAGN Cmin ([5]; aged 0 to 2 months, 13 subjects): 69.39 (±54.03) μg/mL | Plasma PBA mean AUC[0-last] [5, 8]: 374.53 (±390.48) μg*hr/mL | Plasma PBA mean Cmax [5, 8]: 46.2 (±49.8) μg/mL | Plasma PBA mean Tmax [5, 8]: 9.39 (±7.41) hr | mean plasma PAA AUC(0-last) [5, 8]: 1321.18 (±1220.52) μg*hr/mL | mean plasma PAA Cmax [5, 8]: 115.3 (±102.0) μg/mL | mean plasma PAA Tmax [5, 8]: 9.85 (±9.26) hr | mean plasma PAGN AUC(0-last) [5, 8]: 1384.12 (±1141.03) μg*hr/mL | mean plasma PAGN Cmax [5, 8]: 102.1 (±48.6) μg/mL | mean plasma PAGN Tmax [5, 8]: 11.72 (±8.24) hr | Plasma PBA mean AUC[0-last] [5, 9]: 280.936 (±293.553) μg*hr/mL | Plasma PBA mean Cmax [5, 9]: 42.11 (±36.715) μg/mL | Plasma PBA mean Cmin [5, 9]: 1.697 (±2.254) μg/mL | Plasma PBA mean Tmax [5, 9]: 8.383 (±4.564) hr | mean plasma PAA AUC(0-last) [5, 9]: 246.126 (±238.547) μg*hr/mL | mean plasma PAA Cmax [5, 9]: 36.52 (±31.784) μg/mL | mean plasma PAA Cmin [5, 9]: 4.197 (±6.434) μg/mL | mean plasma PAA Tmax [5, 9]: 7.422 (±7.351) hr | mean plasma PAGN AUC(0-last) [5, 9]: 583.835 (±285.241) μg*hr/mL | mean plasma PAGN Cmax [5, 9]: 62.45 (±27.281) μg/mL | mean plasma PAGN Cmin [5, 9]: 20.62 (±14.529) μg/mL | mean plasma PAGN Tmax [5, 9]: 6.573 (±7.181) hr | PAA exposure, 24-hour area under the curve, vs NaPBA [6]: very similar | mean ammonia exposure, 24-hour area under the curve, vs NaPBA [6]: non-inferior
